Source: the NIST ThermoML archive (doi:10.1021/je101012n)

Assay: mn = molality of the nth substance listed, in mol/kg
Conditions: 101 kPa, Liquid, Alternating current cell with electrodes

O=S(=O)([O-])[O-].[Na+].[Na+] [sodium sulfate] + O
electrical conductivity [S/m]
Conditions	278.15 K	283.15 K	298.15 K	308.15 K	318.15 K	343.15 K	363.15 K
m1 = 0.0001	0.001565	0.001807	0.002576	0.003181	0.003786	0.005401	0.00676
m1 = 0.001	0.01463	0.0168	0.02415	0.0292	0.03475	0.05015	0.0633
m1 = 0.01	0.1296	0.1488	0.2128	0.2575	0.3049	0.4381	0.5474
m1 = 0.1001	1	1.148	1.639	1.986	2.347	3.347	4.17
m1 = 0.1989	1.756	2.022	2.882	3.508	4.153	5.946	7.43
m1 = 0.4999	3.383	3.854	5.47	6.708	7.954	11.39	13.7

[Cl-].[Na+] [sodium chloride] + O
electrical conductivity [S/m]
Conditions	278.15 K	283.15 K	298.15 K	308.15 K	318.15 K	343.15 K	363.15 K
m1 = 0.000104	0.0008271	0.0009431	0.001295	0.00161	0.001893	0.002693	0.003358
m1 = 0.00099	0.007531	0.008619	0.01224	0.01478	0.01747	0.02497	0.03126
m1 = 0.01	0.07349	0.08395	0.1185	0.1425	0.1694	0.2418	0.3029
m1 = 0.1	0.6588	0.7505	1.06	1.277	1.505	2.148	2.691
m1 = 0.5	2.948	3.348	4.652	5.625	6.624	9.35	11.68
m1 = 1	5.444	6.123	8.43	10.19	11.94	16.8	20.94

O=[N+]([O-])[O-].[K+] [potassium nitrate] + O
electrical conductivity [S/m]
Conditions	278.15 K	283.15 K	298.15 K	308.15 K	318.15 K	343.15 K	363.15 K
m1 = 0.000103	0.0009389	0.001073	0.001486	0.001798	0.002048	0.00283	0.00348
m1 = 0.000997	0.008901	0.01015	0.01411	0.01701	0.01956	0.02717	0.0338
m1 = 0.01026	0.0874	0.09971	0.1385	0.1664	0.1919	0.2666	0.3287
m1 = 0.09972	0.7601	0.8658	1.201	1.44	1.669	2.342	2.875
m1 = 0.4093	2.815	3.211	4.407	5.264	6.162	8.59	10.45
m1 = 0.7941	4.806	5.474	7.428	8.831	10.38	14.63	16.97

[Cl-].[Cl-].[Mg+2] [magnesium chloride] + O
electrical conductivity [S/m]
Conditions	278.15 K	283.15 K	298.15 K	308.15 K	318.15 K	343.15 K	363.15 K
m1 = 0.000119	0.001861	0.002134	0.002989	0.003553	0.004209	0.006086	0.00764
m1 = 0.000984	0.01481	0.017	0.02432	0.02937	0.03478	0.0501	0.06265
m1 = 0.01137	0.1537	0.176	0.2503	0.302	0.3534	0.5068	0.6347
m1 = 0.09942	1.1	1.256	1.772	2.137	2.515	3.575	4.424
m1 = 0.3609	3.449	3.927	5.491	6.606	7.753	10.94	13.6

[Cl-].[Cs+] [cesium chloride] + O
electrical conductivity [S/m]
Conditions	278.15 K	283.15 K	298.15 K	308.15 K	318.15 K	343.15 K	363.15 K
m1 = 0.000106	0.001018	0.001151	0.001597	0.001917	0.002242	0.003135	0.004007
m1 = 0.00101	0.009529	0.01089	0.0151	0.01817	0.02103	0.0293	0.03658
m1 = 0.01058	0.09738	0.1107	0.1539	0.185	0.2142	0.2972	0.3702
m1 = 0.1009	0.8548	0.9735	1.346	1.614	1.859	2.604	3.107
m1 = 0.4763	3.754	4.256	5.762	6.816	7.917	11.01	13.23
m1 = 1.09	8.303	9.355	12.29	14.25	16.55	22.98	26.87

O=[N+]([O-])[O-].O=[N+]([O-])[O-].[Zn+2] [nitric acid, zinc salt] + O
electrical conductivity [S/m]
Conditions	278.15 K	283.15 K	298.15 K	308.15 K	318.15 K	343.15 K	363.15 K
m1 = 8.7e-05	0.001368	0.001579	0.002248	0.002744	0.003188	0.004549	0.00575
m1 = 0.00127	0.01814	0.02081	0.02942	0.03606	0.04205	0.06014	0.07615
m1 = 0.00874	0.1162	0.1334	0.1891	0.2299	0.2687	0.383	0.4824
m1 = 0.1275	1.391	1.592	2.217	2.658	3.118	4.402	5.442
m1 = 0.3325	3.111	3.653	4.931	5.906	6.986	9.937	11.83

O=[N+]([O-])[O-].O=[N+]([O-])[O-].[Cu+2] [copper dinitrate] + O
electrical conductivity [S/m]
Conditions	278.1 K	283.1 K	298.15 K	308.15 K	318.15 K	343.15 K	363.15 K
m1 = 0.0001	0.01101	0.01227	–	–	–	0.02684	0.0318
m1 = 0.0011	0.02486	0.02823	0.0388	0.04633	0.05303	0.07303	0.08992
m1 = 0.01032	0.1433	0.1641	0.2308	0.2795	0.3256	0.4628	0.5792
m1 = 0.1108	1.207	1.382	1.935	2.333	2.746	3.918	4.838
m1 = 0.3459	3.219	3.68	5.093	6.092	7.235	10.34	12.57
